From patent US12286411B2, “Indane derivatives for use in the treatment of bacterial infection” (priority 2018, dated 2025)

Columns and labels:
[1] = biological target: T1, LasB elastase (dialysed supernatant from P. aeruginosa PAO1) (Pseudomonas aeruginosa, UniProt P14756); assay: Elastin assay to determine % inhibition (Elastin Congo-Red, dialysed PAO1 supernatant); type: biochemical; details: read-out: Elastin hydrolysis % inhibition @ 50/25 μM inhibitor concentration
T1 construct: Culture supernatants are recovered by centrifugation and filtrated through a 0.22 μM filter; endogenous in cells; host or cells: P. aeruginosa PAO1 culture supernatant, dialysed
Protocol: Experiments were therefore conducted (1) to measure the potency of inhibition of compounds of the invention against purified Pseudomonas aeruginosa LasB enzyme and also experiments were conducted (2) to measure the ability of compounds of the invention to inhibit LasB-catalysed elastin degradation. The first assay uses a commercial fluorescent synthetic peptide and purified LasB enzyme. The LasB hydrolysis kinetics are measured allowing the determination of the IC50 and Ki of the inhibitors; the second is a more physiological assay using dialysed Pseudomonas aeruginosa supernatant as source of enzyme, plus its natural substrate Elastin. It is an “end point assay” that determines the percentage of LasB inhibition by each compound for one particular time point and inhibitor concentration. Technical details are described below:
The Elastin assay uses as source of enzyme dialysed supernatant from P. aeruginosa PAO1 and the Elastin Congo-Red as substrate. The natural LasB substrate, elastin, is complexed with the congo-red dye (Elastin Congo-Red, ECR). The elastolysis activity from the culture supernatant will degrade elastin and release the congo-red dye into the supernatant. This red dye release can be measured with a spectrophotometer.
Method: To determine LasB elastase activity and assess compound inhibition, an overnight culture of P. aeruginosa strain PA01 is diluted in LB medium. After reaching an ° Dam. of 0.6, this culture is diluted and incubated for additional 18-24 hours in a shaking incubator. Culture supernatants are recovered by centrifugation and filtrated through a […] filter. These supernatants are dialysed (filtration molecules <20 kDa) into a 50 mM Tris-HCl pH 7.4, 2.5 mM CaCl2 solution at 4° C. under agitation for 24 hours. Supernatant dialysed is then mixed volume/volume with the ECR suspension (20 mg/mL of ECR in 100 mM Tris-HCl pH 7.4 buffer supplemented with 1 mM CaCl2) supplemented with Triton X100 (final concentration of 0.01%) in presence of DMSO (positive control) and/or different concentrations of compound (routinely 50 to 1.56 μM). As a negative control, the dialysed supernatant is replaced by Tris-HCl solution (50 mM Tris-HCl pH 7.4, 2.5 mM CaCl2). The mixed reaction is then incubated overnight in a 37° C. shaking incubator. The reaction supernatant is recovered by centrifugation and the release of congo-red is measured by its absorbance at 495 nm (OD495nm).
Percentage inhibition is determined using the following equation: ((OD495nm value of positive control−OD495nm value of negative control)−(OD495nm value of treated supernatant OD495nm value of negative control))/(OD495nm value of positive control−OD495nm value of negative control)×100.

[2] = system: Pseudomonas aeruginosa (PAO1); assay: Mouse model of Pseudomonas aeruginosa lung infection; type: in vivo; details: mice infected intranasally with wild-type PAO1, compound i.v. 1 h and 2 h post infection, 10 and 30 mg/kg, 24 hours post infection
Protocol: Mice were dosed by intranasal inoculation of PA (PAO1), then scarified after 24 hours. The extent of infection in the lung was quantified by bacterial load (CFU determination, colony forming units) and the levels of proinflammatory IL-1β. Statistical analysis on both readouts were performed by ANOVA with a Dunnett post-test.
Compounds were administered intravenously in a two-dose regimen (1 hour and 2 hours post infection) at two different doses (10 and 30 mg/kg).

T1 sequence (P14756 198-498): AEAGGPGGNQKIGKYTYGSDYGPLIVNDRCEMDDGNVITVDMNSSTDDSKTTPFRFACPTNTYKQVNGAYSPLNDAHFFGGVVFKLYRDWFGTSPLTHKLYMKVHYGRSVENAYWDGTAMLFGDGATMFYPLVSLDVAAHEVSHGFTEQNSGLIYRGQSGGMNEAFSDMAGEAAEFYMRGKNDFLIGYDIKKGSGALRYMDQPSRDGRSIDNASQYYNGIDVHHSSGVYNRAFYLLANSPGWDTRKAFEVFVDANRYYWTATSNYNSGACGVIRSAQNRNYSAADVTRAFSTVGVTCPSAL

COc1cc2sc(CNC(=O)C3(CC(=O)O)Cc4ccccc4C3)nc2cc1OCCCN(C)C [Example 3, 2-[2-[[5-[3-(dimethylamino)propoxy]-6-methoxy-1,3-benzothiazol-2-yl]methylcarbamoyl]indan-2-yl]acetic acid]
inhibition at 25 µM [1]: > 75%

CCCOc1ccc2nc(CNC(=O)C3(CC(=O)O)Cc4ccccc4C3)sc2c1 [Example 2, 2-[2-[(6-propoxy-1,3-benzothiazol-2-yl)methylcarbamoyl]indan-2-yl]acetic acid]
inhibition at 25 µM [1]: > 75%

O=C(O)CC1(C(=O)NCc2nc3ccc(OCCCO)cc3s2)Cc2ccccc2C1 [Example 1, 2-[2-[[6-(3-hydroxypropoxy)-1,3-benzothiazol-2-yl]methylcarbamoyl]indan-2-yl]acetic acid]
inhibition at 25 µM [1]: > 75%

COc1cc2sc(CNC(=O)C3(CC(=O)[O-])Cc4ccccc4C3)nc2cc1OCCOCC[N+](C)(C)C [Example 5, 2-[2-[[6-methoxy-5-[2-[2-(trimethylammonio)ethoxy]ethoxy]-1,3-benzothiazol-2-yl]methylcarbamoyl]indan-2-yl]acetate]
inhibition at 25 µM [1]: 60 to 75%

COc1cc2sc(CNC(=O)C3(CC(=O)[O-])Cc4cc(F)c(F)cc4C3)nc2cc1OCCOCC[N+](C)(C)C [Example 6, 2-[5,6-difluoro-2-[[6-methoxy-5-[2-[2-(trimethylammonio)ethoxy]ethoxy]-1,3-benzothiazol-2-yl]methylcarbamoyl]indan-2-yl]acetate]
inhibition at 25 µM [1]: > 75%

COc1cc2sc(CNC(=O)C3(CC(=O)[O-])Cc4cc(F)c(F)cc4C3)nc2cc1OCC[N+](C)(C)C [Example 7, 2-[5,6-difluoro-2-[[6-methoxy-5-[2-(trimethylammonio)ethoxy]-1,3-benzothiazol-2-yl]methylcarbamoyl]indan-2-yl]acetate]
inhibition at 25 µM [1]: 60 to 75%

COc1cc2sc(CNC(=O)C3(CC(=O)[O-])Cc4ccccc4C3)nc2cc1OCCC[N+](C)(C)C [Example 4, 2-[2-[[6-methoxy-5-[3-(trimethylammonio)propoxy]-1,3-benzothiazol-2-yl]methylcarbamoyl]indan-2-yl]acetate]
production and activation of IL-1β in the lung ([2]; FIG. 2): inhibited the production and activation of IL-1β in mice infected by wild-type PA (PA01) at a similar level than the lasB deleted mutant
extent of infection in the lung (CFU levels) ([2]; FIG. 3): reduced the extent of infection in the lung to the level of the LasB deleted mutant
inhibition at 25 µM [1]: > 75%
